The numbers were not newly measured in patent publication US20150086650A1 (priority 2012, published 2015), which cites them from elsewhere.

For data set [1] the following is noted: rats.

`CO/C=C(/C(=O)OC)c1ccccc1Oc1cc(Oc2ccccc2C#N)ncn1` [Azoxystrobin]: the inhalation toxicity classification result is on record as “toxic by inhalation”. Moreover, in data set [1], the “acute oral LD50” value is listed as “more than 5,000 mg/kg”.
